Data taken from US20120029054A1, “RNA Interference Mediated Inhibition of GATA Binding Protein 3 (GATA3) Gene Expression Using Short Intefering Nucleic Acid (siNA)” (Merck Sharp & Dohme Corp., priority 2009, published 2012).

Tests used:
GATA3 mRNA [1] = assay: GATA3 mRNA knock-down (Taqman qRT-PCR) after RNAiMax transfection of human MCF7 cells; screen and IC50 dose response; assay type: cell-based; conditions: for % KD Human: 10 nM siNA, 24 hrs; for % KD Human / IC50: MCF7 cells; for IC50 / % KD GATA3 mRNA at 10 nM / % KD GATA3 10 nM: mean ± S.D.; for % KD GATA3 mRNA at 10 nM: Table 4, MCF7 cells, no assay mark printed (same values marked * in Table 3); for % KD GATA3 10 nM: Table 5, MCF7 cells, three experiments, no assay mark printed
Method in brief: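 MCF7 cells (5000/well, 24 h) transfected with siNA–RNAiMax complexes at 10 nM final siNA for 24 h without media change. GATA3 mRNA measured by TaqMan qRT-PCR, alongside β-actin and GAPDH probes. % knock-down by comparative Ct (2^−ΔΔCt) relative to non-targeting control siNA.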

GATA3 mRNA [2] = assay: GATA3 mRNA knock-down (Taqman qRT-PCR) after RNAiMax transfection of mouse RAG cells; assay type: cell-based; conditions: 10 nM siNA, 24 hrs, average of 2 experiments
Method in brief: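 Murine RAG cells, 5000/well, transfected 24 h after plating with siNA (10 nM final) complexed with RNAiMax, harvested after 24 h. GATA3 mRNA quantified by TaqMan qRT-PCR with GAPDH reference; % knock-down by comparative Ct (2^−ΔΔCt) versus non-targeting control siNA.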

GATA3 protein = assay: GATA3 Western Blot in transfected MCF7 cells (6-well plate); assay type: cell-based, human; conditions: 30 nM, 48 hours, average band ratio ± S.D.
Protocol: MCF7 cells were plated in 6-well plates at final counts of 70,000 cells/well in 2 ml of complete growth media. Transfection was performed using 2.5 uL of RNAiMax per well. Final concentration of siNAs was 30 nM (screen) and 30, 0.3, and 0.003 nM (dose response study). Protein lysates were harvested 24, 48, and 72 hours post-transfection (screen) and 72 hours post-transfection (dose response study). Protein lysates were prepared using Cell Disruption Buffer from the PARIS kit (Ambion, cat #1921) according to manufacturer's instructions. Protein concentration was measured using a Bradford Quick Start Kit (Bio-Rad, cat#500-0205).
The protein source for the Western Blot experiments were from transfection of MCF7 cells in a 6 well plate, as described above.
Protein samples were diluted 1:1 in 2× Laemmli buffer with 5% β-mercapto-ethanol and incubated at 95° C. for 5 minutes. 20-40 ug of protein was loaded in each lane of 10% Tris-HCl gel. One lane was designated for MagicMark Protein Standard (Invitrogen # LC5602). The gel was run at 100V for approximately 2 hours. Protein was transferred to a PVDF membrane at 100V for 60 minutes. Once the transfer was finished, the membrane was blocked in 1% Casein in PBS (BioRad Cat#161-0783) for 1 hour on a plate rocker at room temperature followed by the overnight incubation at 4° C. with mouse monoclonal anti-GATA3 primary antibody (Santa Cruz Biotechnology, cat# HG3-31) diluted 1:500 in 1% Casein in PBS. On the next day, the blot was washed 4×5 minutes in PBST (0.1% Tween-20 in PBS) solution and incubated for 30 minutes at room temperature with goat anti-mouse secondary antibody (Pierce Biotechnology, cat#3 31430) diluted 1:20,000 in 1% Casein. […]
The protein bands were quantified by computing their density which is defined by the ratio between the total intensity of all pixels and the area of the rectangle drawn around each band (intensity/mm^2). The density was calculated by the BioRad software.
The level of protein was quantified using the Bio-Rad VersaDoc Imager according to the protocols of that piece of equipment. […]

human GAPDH mRNA = assay: GAPDH specificity screen in human MCF7 cells (β-Actin normalised qRT-PCR); assay type: cell-based; conditions: normalised to β-Actin, three experiments, mean ± S.D.
Protocol: A series of probes and primers were used to detect the various mRNA transcripts of the genes of β-Actin (human cell line only), and of GATA3 and GAPDH in mouse and human cell lines. All Taqman probes and primers for the experiments here-in described were supplied as pre-validated sets by Applied Biosystems, Inc. (see Table 2).
The assays were performed on an ABI 7900 instrument, according to the manufacturer's instructions. A TaqMan Gene Expression Master Mix (provided in the Cells-to-CT™, Applied Biosystems, Cat #4399002) was used. The PCR reactions were carried out at 50° C. for 2 min, 95° C. for 20 min followed by 40 cycles at 95° C. for 15 secs and 60° C. for 1 min.
The expression level of the gene of interest and % knock-down was calculated using Comparative Ct method: […]
These same three siNAs were tested for specificity in the human MCF7 cell line at 10 nM concentration to determine the effect of the GATA3 siNAs on the mRNA transcript of human GAPDH. In this assay, the samples from the primary screen, discussed above, O-Actin, a ubiquitously expressed ‘house-keeping’ gene, served as an endogenous control for normalization of the data.

Row | Substance | % KD Human (GATA3 mRNA [1]; * Hs00231122_m1 Taqman Assay) | % KD Human (GATA3 mRNA [1]; ** Hs00922328_m1 Taqman Assay) | IC50 (GATA3 mRNA [1]) | % KD GATA3 mRNA at 10 nM (GATA3 mRNA [1]) | % KD GATA3 10 nM (GATA3 mRNA [1]) | % KD Mouse (GATA3 mRNA [2]) | Density (GATA3)/Density (α-Tubulin) (GATA3 protein) | % KD GAPDH 10 nM (human GAPDH mRNA)
1 | 30260-DC: GATA3 siNA duplex, site 1691: sense B GcAuGAcucAcuGGAGGAc TTB (SEQ 73), antisense GUCcuccAGuGAGucAuGcUU (SEQ 74) (sense GCAUGACUCACUGGAGGACTT; antisense GUCCUCCAGUGAGUCAUGCUU; chemistry not fully specified) | 60 ± 1* % | 69 ± 9** % | 0.254 ± 0.212 nM | 60 ± 1% | 60 ± 1% | 47 ± 0% | 0.025 ± 0.0007 | −38 ± 9%
2 | 30261-DC: GATA3 siNA duplex, site 1637: sense B cAuccAGAccAGAAAccGA TTB (SEQ 75), antisense UCGGuuucuGGucuGGAuGUU (SEQ 76) (sense CAUCCAGACCAGAAACCGATT; antisense UCGGUUUCUGGUCUGGAUGUU; chemistry not fully specified) | 77 ± 4* % | 77 ± 4** % | 0.051 ± 0.03 nM | 77 ± 4% | 77 ± 4% | 72 ± 2% | 0.01 ± 0.00004 | −17 ± 1%
